Our source for the melting point values is a melting point compilation (Tetko et al.; mined from patent text by program, amines drawn as free bases though some values may be those of a salt).

For the molecule `COc1ccc(C(=O)Nc2cc(NC(=O)c3cccc(NS(C)(=O)=O)c3)ccc2C)cc1OC`, the melting point was above 300 °C.

`Oc1c2c(nn1-c1ccccn1)CCc1cc(-c3ccccc3)ccc1-2` displayed a melting point of 133 to 134 °C. The same measure for `COc1ccc(S(=O)(=O)c2c(SC)nn3c(N)cc(C)nc23)cc1`: above 230 °C; for `CCOC(=O)C=C(C)C=CC=O`: 49 to 50 °C. With `CC(=O)SCSc1c[nH]nn1`, the melting point was 88 to 89 °C. `CC1ON(C)C(=O)C(C(=O)c2ccc(Cl)cc2[N+](=O)[O-])C1=O` (stereo not given) returned a melting point of 128 °C. As to `COc1ccc(-c2ccc3nccn3c2)cc1-c1ccc2nonc2c1`, the melting point fell in the range of 190 to 196 °C. The same measure for `O=C(Nc1ccccc1)OCC1(COC(=O)Nc2ccccc2)CSc2ccccc2C1=O`: 67 to 69 °C; for `CCN(CC)c1nc(N)c(SC)c(Cl)n1`: 68 °C. The same measure for `C=Cc1cc(O[Si](C)(C)C(C)(C)C)cc2nc(-c3ccc(O[Si](C)(C)C(C)(C)C)c(F)c3)oc12`: 93 to 95 °C; for `CCCCCCCCCC/C=C/c1ccccc1/C=C/C(=O)O`: 85 to 86 °C; for `C=CCc1cc(C=CNC(C)=O)ccc1OCC1CO1` (stereo not given): 135 to 136 °C.

Consider `CC(C)n1cc(-c2nc(C#N)c(N)nc2-c2cccc(F)c2)ccc1=O`, for which the melting point was 211 °C. The same measure for `CCOC(Nc1ccccc1)(OCC)C1(F)C=CN=C(C(=O)c2ccc(Cl)cc2)C1` (stereo not given): 96 to 97 °C. The same measure for `Cc1cc(O)nc2nc(SCc3ccccc3)nn12`: 219 to 220 °C; for `CC1(C)Cn2c(nc3c(N)nc4ccccc4c32)CN1S(C)(=O)=O`: 227 to 228 °C. Under `COc1ccc2[nH]c(S(=O)Cc3cc(N(C)C)c(Cl)cn3)nc2c1` (stereo not given) stands 155 to 157 °C; under `Cc1ccccc1C(=O)Nc1ccc(C(=O)N2Cc3cccn3-c3ccccc32)cc1`, 206 to 207 °C. In the case of `Cc1cccc(-c2n[nH]cc2-c2ccc(F)c(-c3c[nH]c(C(C)(C)O)n3)c2)n1`, the melting point was in the range of 135 to 137 °C. `COC(=O)c1ccc(CC(C)NCC(O)c2ccc(Cl)cc2)cc1` (stereo not given) yielded a melting point of 134 to 135 °C.

`CC(C)(Sc1ccc2c(-c3ccc(Cl)cc3)noc2c1)C(=O)O` returned a melting point of 176 to 177 °C. The molecule `CNc1nc(-c2cccc(C#Cc3ccccc3)c2)c2cc(OC)c(OC)cc2n1` came in with a melting point of 102 to 104 °C. The same measure for `CC(CO)(CO)NCc1cc2c3ccccc3ccc2c2ccccc12`: 200 to 202 °C; for `CCCC(=O)NCCC1CCc2c(OC)ccc3ccc(OC)c1c23` (stereo not given): 99 °C. Under `C=CC[C@@H]1C[C@@H](COS(C)(=O)=O)NC1=O` stands 62 to 63 °C; under `CCCc1cc(Cl)c2oc(Cc3ccc(O)cc3)c(C)c2c1O`, 142 to 143 °C; under `COc1ccc(CC2NC(=O)NC2=O)cc1CCc1ccccc1` (stereo not given), 147 to 149 °C. The same measure for `Cc1cccc(C(=O)c2[nH]c3cc(Cl)ccc3c2CC(=O)O)c1`: 182 to 184 °C; for `CC(C)C(=O)Nc1nc(CN2CCN(C(c3ccccc3)c3ccccc3)CC2)cs1`: 132 to 140 °C.

Consider `COC(=O)C1(S(=O)(=O)N2CC=C(c3ccc(Br)c(C)c3)CC2)CCOCC1`, for which the melting point fell in the range of 128 to 130 °C. The same measure for `c1cnc2cccn2c1`: 230 to 231 °C; for `COC(=O)c1cc(NC(C)C)c2cc(Cc3ccc(F)cc3)cnc2c1O`: 121 to 122 °C. Under `CCCCNC(=O)Oc1cccc(NC(=O)CC(=O)CCC)c1` stands 123 °C; under `Nc1c(F)c(N2CC(O)C2)c(F)c2c1c(=O)c(C(=O)O)cn2C1CC1`, 271 to 275 °C. Under `CCNC(=O)c1cccs1` stands 75 to 78 °C.
